According to ChEMBL document CHEMBL1122262, “Quantitative structure-activity relationships employing independent quantum chemical indices” (1983):

What was measured:
Mus musculus = species: Mus musculus; test: Logarithm of effective dose evaluated using the foot-shock test in mice; type: functional
Escherichia coli = test: Logarithm of the inhibitory rate constant against Escherichia coli; type: functional
[1] = target: T1, Phenylethanolamine N-methyltransferase (Homo sapiens) (UniProt P11086); details: Oryctolagus cuniculus
T1 sequence (whole entry): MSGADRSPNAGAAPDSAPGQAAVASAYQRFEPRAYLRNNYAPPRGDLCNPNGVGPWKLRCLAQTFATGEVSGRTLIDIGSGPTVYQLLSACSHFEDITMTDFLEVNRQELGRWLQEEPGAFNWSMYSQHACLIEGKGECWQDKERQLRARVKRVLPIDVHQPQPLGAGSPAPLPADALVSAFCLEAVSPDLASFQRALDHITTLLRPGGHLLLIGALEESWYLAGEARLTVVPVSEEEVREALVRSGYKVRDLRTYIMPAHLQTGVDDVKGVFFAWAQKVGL
Description: Inhibition of phenylethanolamine N-methyltransferase(PNMT)activity

| Compound | Log ED50 (Mus musculus) [mM kg-1] | Log rate constant (Escherichia coli) | other results |
| --- | --- | --- | --- |
| CN1C(=O)CN=C(c2ccccc2Cl)c2cc(Cl)ccc21 | 1.5 |  |  |
| CN(C)[C@@H]1C(=O)C(C(N)=O)=C(O)[C@@]2(O)C(=O)C3=C(O)c4c(O)ccc([N+](=O)[O-])c4CC3C[C@@H]12 (some centres undefined) |  | 2.87 M-1 s-1 |  |
| NCc1cccc(C(F)(F)F)c1 |  |  | pI50 [1]: 5.64 |
| NCc1cc(Cl)ccc1Cl |  |  | pI50 [1]: 4.82 |
| CN1C(=O)CN=C(c2ccccc2)c2cc([N+](=O)[O-])ccc21 [NIMETAZEPAM] | 2.07 |  |  |
| Cc1cccc(CN)c1 |  |  | pI50 [1]: 3.82 |
| O=C1CN=C(c2ccccc2)c2cc(C(F)(F)F)ccc2N1 [RO-052904] | 1.48 |  |  |
| CN(C)[C@@H]1C(=O)C(C(N)=O)=C(O)[C@@]2(O)C(=O)C3=C(O)c4c(ccc([N+](=O)[O-])c4O)CC3C[C@@H]12 (some centres undefined) |  | 1.65 M-1 s-1 |  |
| NCc1ccc(Cl)cc1Cl |  |  | pI50 [1]: 4.68 |
| NCc1ccc(C(F)(F)F)cc1 |  |  | pI50 [1]: 5.2 |
| Cc1ccc(CN)cc1 |  |  | pI50 [1]: 3.16 |
| NCc1ccccc1F |  |  | pI50 [1]: 3.87 |
| CN(C)[C@@H]1C(=O)C(C(N)=O)=C(O)C2C(=O)C3=C(O)c4c(O)cccc4CC3C[C@H]21 (some centres undefined) |  | 0.41 M-1 s-1 |  |
| Cc1c2c(c(O)c3c(O)cccc13)C(=O)C1C(O)=C(C(N)=O)C(=O)[C@@H](N(C)C)[C@@H]1C2 (some centres undefined) |  | 1.19 M-1 s-1 |  |
| CN(C)[C@@H]1C(=O)C(C(N)=O)=C(O)[C@@]2(O)C(=O)C3=C(O)c4c(O)ccc(Cl)c4C(O)C3C[C@@H]12 (some centres undefined) |  | 2.71 M-1 s-1 |  |
| CSc1ccc2c(c1)C(c1ccccc1)=NCC(=O)N2 | 1.15 |  |  |
| CN(C)[C@@H]1C(=O)C(C(N)=O)=C(O)[C@@]2(O)C(=O)C3=C(O)c4c(ccc(N)c4O)CC3C[C@@H]12 (some centres undefined) |  | 2.16 M-1 s-1 |  |
| CN1C(=O)CN=C(c2ccccc2F)c2cc(Cl)ccc21 [FLUDIAZEPAM] | 1.78 |  |  |
| CN1C(=O)CN=C(c2ccccc2F)c2ccccc21 [RO-054520] | 0.83 |  |  |
| CN(C)c1ccc2c(c1)C(c1ccccc1)=NCC(=O)N2C | 0.86 |  |  |
| CN1C(=O)CN=C(c2ccccc2C(F)(F)F)c2cc([N+](=O)[O-])ccc21 | 1.86 |  |  |
| NCc1cccc(F)c1 |  |  | pI50 [1]: 4 |

| Compound | Log ED50 (Mus musculus) [mM kg-1] | Log rate constant (Escherichia coli) | other results |
| --- | --- | --- | --- |
| NCc1cccc(Cl)c1 |  |  | pI50 [1]: 5.07 |
| CN(C)c1ccc2c(c1)C(c1ccccc1Cl)=NCC(=O)N2C | 0.61 |  |  |
| O=C1CN=C(c2ccccc2)c2cc(F)ccc2N1 [RO-053061] | 0.4 |  |  |
| Cc1ccccc1CN |  |  | pI50 [1]: 4.17 |
| CSc1ccc2c(c1)C(c1ccccc1)=NCC(=O)N2C | 0.87 |  |  |
| CN1C(=O)CN=C(c2ccccc2)c2cc(Cl)ccc21 [DIAZEPAM] | 1.45 |  |  |
| CN(C)c1ccc2c(c1O)C(O)=C1C(=O)[C@]3(O)C(O)=C(C(N)=O)C(=O)[C@@H](N(C)C)[C@@H]3CC1C2 (some centres undefined) |  | 1.37 M-1 s-1 |  |
| CN(C)[C@@H]1C(=O)C(C(N)=O)=C(O)C2C(O)C3=C(C[C@H]21)[C@@](C)(O)c1c(Cl)ccc(O)c1C3=O (some centres undefined) |  | -0.47 M-1 s-1 |  |
| CN(C)[C@@H]1C(=O)C(C(N)=O)=C(O)[C@@]2(O)C(O)=C3C(=O)c4c(O)cccc4[C@](C)(O)C3C[C@@H]12 (some centres undefined) |  | 2.43 M-1 s-1 |  |
| NCc1ccccc1C(F)(F)F |  |  | pI50 [1]: 4.64 |
| CN(C)[C@@H]1C(=O)C(C(N)=O)=C(O)[C@@]2(O)C(=O)C3=C(O)c4c(O)ccc(N)c4CC3C[C@@H]12 (some centres undefined) |  | 2.26 M-1 s-1 |  |
| CN(C)[C@@H]1C(=O)C(C(N)=O)=C(O)[C@@]2(O)C(O)=C3C(=O)c4c(O)cccc4[C@](C)(O)C3C(=O)[C@@H]12 (some centres undefined) |  | 2.41 M-1 s-1 |  |
| CN1C(=O)CN=C(c2ccccc2)c2cc(C#N)ccc21 | 1.74 |  |  |
| O=C1CN=C(c2ccccc2)c2ccccc2N1 [RO-052921] | 0.37 |  |  |
| CN(C)[C@@H]1C(O)=C(C(N)=O)C(=O)[C@@]2(O)C(O)=C3C(=O)c4c(O)cccc4C[C@H]3C[C@@H]12 [SANCYCLINE] |  | 1.98 M-1 s-1 |  |
| CN(C)[C@@H]1C(=O)C(C(N)=O)=C(O)[C@@]2(O)C(O)=C3C(=O)c4c(O)ccc(Cl)c4[C@](C)(O)C3C[C@@H]12 (some centres undefined) |  | 2.6 M-1 s-1 |  |
| Cc1cccc(CN)c1C |  |  | pI50 [1]: 4.24 |
| N#Cc1ccc2c(c1)C(c1ccccc1)=NCC(=O)N2 | 0.81 |  |  |
| CN1C(=O)CN=C(c2ccccc2F)c2cc([N+](=O)[O-])ccc21 [FLUNITRAZEPAM] | 2.59 |  |  |
| O=C1CN=C(c2ccccc2)c2cc([N+](=O)[O-])ccc2N1 [NITRAZEPAM] | 1.75 |  |  |
| CN1C(=O)CN=C(c2ccccc2Cl)c2cc([N+](=O)[O-])ccc21 [RO-054082] | 2.12 |  |  |
| CN(C)[C@@H]1C(=O)C(C(N)=O)=C(O)[C@@]2(O)C(=O)C3=C(O)c4c(O)ccc(Br)c4CC3C[C@@H]12 (some centres undefined) |  | 1.71 M-1 s-1 |  |
